“And” between values parts separate entries of the source, which are not always exact repeats. Equal values may be shown once.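 Five compound concentrations were applied to cells in 96-well plates for 48 hours; endpoints were derived by simple linear interpolation of the resulting dose-response curve. GI50 marks 50% less growth. The concentration for full growth arrest is given as TGI.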
Tests used:
Test in all cases: growth of human tumour cells (NCI), 48 h
A549 NSCLC = tested on: A549 NSCLC
CCRF-CEM leukemia = tested on: CCRF-CEM leukemia
EKVX NSCLC = tested on: EKVX NSCLC
HCT-116 colon = tested on: HCT-116 colon
HCT-15 colon = tested on: HCT-15 colon
HOP-92 NSCLC = tested on: HOP-92 NSCLC
SF-268 CNS = tested on: SF-268 CNS
SN12C renal = tested on: SN12C renal
BT-549 breast = tested on: BT-549 breast
SNB-75 CNS = tested on: SNB-75 CNS

| Structure (SMILES) | TGI (A549 NSCLC) | TGI (CCRF-CEM leukemia) | TGI (EKVX NSCLC) | TGI (HCT-116 colon) | TGI (HCT-15 colon) | TGI (HOP-92 NSCLC) | TGI (SF-268 CNS) | TGI (SN12C renal) | GI50 (A549 NSCLC) | GI50 (BT-549 breast) | TGI (BT-549 breast) | GI50 (CCRF-CEM leukemia) | GI50 (EKVX NSCLC) | GI50 (HCT-116 colon) | GI50 (HCT-15 colon) | GI50 (HOP-92 NSCLC) | GI50 (SF-268 CNS) | GI50 (SN12C renal) | TGI (SNB-75 CNS) | GI50 (SNB-75 CNS) |
| --- | --- | --- | --- | --- | --- | --- | --- | --- | --- | --- | --- | --- | --- | --- | --- | --- | --- | --- | --- | --- |
| NC(=O)c1csc(C2C=CC(CO)O2)n1 (configuration not stated) | > 100 µM | > 100 µM | > 100 µM | > 100 µM | > 100 µM | > 100 µM | > 100 µM | > 100 µM |  |  |  |  |  |  |  |  |  |  |  |  |
| N#C/C(=C/C=C(\Cl)c1ccc(Cl)cc1)C(N)=O | 15.4 µM | > 100 µM | 17.4 µM | 1.49 µM | > 32.5 µM | 9.72 µM | 13.6 µM | 18.7 µM | 7540 nM | 7 µM | 13.9 µM | 2810 nM | 7740 nM | 402 nM | 2790 nM | 2470 nM | 3460 nM | 4.38 µM |  |  |
| CC(=O)O[C@H]1[C@@H]2[C@@H]3[C@@H](C[C@H]1C)[C@@H](C)CO[C@@]1(C)CC/C=C(/C)C[C@@H]2O[C@@H]31 | > 100 µM | > 100 µM | > 100 µM | > 100 µM | > 100 µM | > 100 µM | > 100 µM | > 100 µM |  |  |  |  |  |  |  |  |  |  | > 100 µM |  |
| Cc1cc(Cc2cc(C)c(NC(=O)C(=O)C3C(=O)NC(=S)NC3=O)c(C(C)C)c2)cc(C(C)C)c1NC(=O)C(=O)C1C(=O)NC(=S)NC1=O | > 100 µM | > 100 µM | > 100 µM | > 100 µM | > 100 µM | > 100 µM | > 100 µM | > 100 µM |  |  |  |  |  |  |  |  |  |  | > 100 µM |  |
| Cc1ccc(NC(=O)CC(=O)n2nc(-c3ccccc3)c(N=Nc3ccc(Cl)cc3)c2-c2ccccc2)cc1 | 64.4 µM | 54.3 µM | > 100 µM | 33.8 µM | > 100 µM | 89 µM | > 100 µM | > 100 µM |  |  |  |  |  |  |  |  |  |  | 70.9 µM |  |
| CC12O[C@H](c3ccccc3)[C@H](c3ccccc3)N1C(=O)C1(C(=O)OCc3ccccc3)CC12 (some centres not stated) | > 100 µM | > 100 µM |  | > 100 µM | > 100 µM | > 100 µM | > 100 µM | > 100 µM |  |  |  |  |  |  |  |  |  |  | > 100 µM |  |
| CCOC(OCC)C(CC)[Se]c1ccccc1[N+](=O)[O-] (configuration not stated) | > 63.3 µM | > 62.5 µM | > 100 µM | 30.2 µM | 22.2 µM | > 61.1 µM | 63.9 µM | > 61.2 µM |  |  |  |  |  |  |  |  |  |  | > 100 µM |  |
| O=C([O-])c1ccc2c(c1)-c1nc-2nc2[n-]c(nc3nc(nc4[n-]c(n1)c1ccc(C(=O)[O-])cc41)-c1cc(C(=O)[O-])ccc1-3)c1ccc(C(=O)[O-])cc21.[Fe+2] | > 50 µM | > 31.3 µM | > 50 µM | 34.4 µM | > 32.1 µM | > 50 µM | > 50 µM | > 50 µM | > 50000 nM |  |  | > 22200 nM | > 50000 nM | 13600 nM | > 22300 nM | > 50000 nM | > 50000 nM | > 50 µM | > 50 µM | 31.8 µM |
| N/N=C1\c2ccccc2C2/C(=N\N)c3ccccc3C12 (configuration not stated) | > 100 µM | > 100 µM | > 100 µM |  | > 100 µM | > 100 µM | > 100 µM | > 100 µM |  |  |  |  |  |  |  |  |  |  | > 100 µM |  |
| O=C1CC2CCCCC2=C1O (configuration not stated) | > 100 µM | > 100 µM | > 100 µM | > 100 µM | > 100 µM |  | > 100 µM | > 100 µM |  |  |  |  |  |  |  |  |  |  | > 100 µM |  |
| COc1ccc(NC(=O)C(=O)NNC(=O)c2sc(NNC(C)=O)nc2C)c([N+](=O)[O-])c1 | > 100 µM | 61.7 µM | > 100 µM | > 100 µM | > 100 µM | > 100 µM | > 100 µM | > 100 µM |  |  |  |  |  |  |  |  |  |  |  |  |
| CC1CCCC(C(O)CC2CC(=O)N(c3ccccc3)C(=O)C2)C1=O (configuration not stated) | > 100 µM | > 100 µM | > 100 µM | > 100 µM |  | > 100 µM | > 100 µM | > 100 µM |  |  |  |  |  |  |  |  |  |  | > 100 µM |  |
| Cc1c(O)c(=O)ccn1C1OC(CO)C(O)C1O (configuration not stated) | > 100 µM | > 100 µM | > 100 µM | > 100 µM | > 100 µM | > 100 µM | > 100 µM | > 100 µM |  |  |  |  |  |  |  |  |  |  | > 100 µM |  |
| Cn1cc2c(n1)c(N/N=C/c1ccccc1)nn1nnnc21 | > 100 µM | > 100 µM | > 100 µM | > 100 µM | > 100 µM | > 100 µM | > 100 µM | > 100 µM |  |  |  |  |  |  |  |  |  |  | > 100 µM |  |
| N#C/C(=C/c1cccnc1)C(=O)c1ccccc1 | > 100 µM | > 100 µM | > 100 µM | > 100 µM | > 100 µM | > 100 µM | > 100 µM | > 100 µM |  |  |  |  |  |  |  |  |  |  | > 100 µM |  |
| COc1ccc2nc(NCCCNCCO)c3sc4ccc(F)cc4c(=O)c3c2c1 | 3.64 µM |  | 2.94 µM | 2.86 µM | 2.64 µM | 2.45 µM | 3.15 µM | 3.03 µM | 1600 nM | 12.8 µM | 31.7 µM |  | 1450 nM | 1470 nM | 1280 nM | 1100 nM | 1450 nM | 1.56 µM | 3.05 µM | 1.55 µM |
| Cc1cc(N(CCC#N)CCC#N)ccc1/C=C(\NC(=O)/C=C/c1ccccc1)NC(=O)Nc1ccc(Cl)cc1 | > 100 µM | > 100 µM | > 100 µM | > 100 µM | > 100 µM | > 100 µM | > 100 µM | > 100 µM |  |  |  |  |  |  |  |  |  |  |  |  |
| CC[C@@]1(O)C(=O)OCc2c1cc1n(c2=O)Cc2cc3cc(OC)ccc3nc2-1 | 2.92 µM |  | > 100 µM | 0.573 µM and 0.481 µM | 8.12 µM | 0.084 µM and 0.41 µM |  |  | 67.2 nM and 10.9 nM |  |  | 2.32 nM | 1100 nM | 44.2 nM | 223 nM | 25.1 nM | 17 nM |  | 0.0491 µM |  |
| C/C(=N\NC(=O)CC(=O)Nc1ccc(Cl)cc1)c1cc2ccccc2oc1=O | > 100 µM | > 100 µM | > 100 µM | > 100 µM | > 100 µM |  |  | > 100 µM |  |  |  |  |  |  |  |  |  |  | > 100 µM |  |
| CCCCCCCCCCCCCC/C(C(=O)OC)=C(/O)C(=O)OCC | 64.9 µM | > 100 µM | > 100 µM | > 100 µM | 36.3 µM | 54.5 µM | 64.3 µM | > 100 µM |  |  |  |  |  |  |  |  |  |  | > 100 µM |  |
